Source: article PMC12867150, “A fungi-derived cyclic peptide enhances Th9-mediated antitumor immunity by targeting ZAP70 and SREBP1” (The Journal of Clinical Investigation, 2025)
“And” between values parts separate entries of the source, which are not always exact repeats. Identical values can stand only once.

What was measured:
phosphorylated ZAP70 = assay: Flow cytometry of phosphorylated ZAP70 in Th9 cells (Figure 5E); format: cell-based, mouse; details: 30 minutes after activation; result in words
Procedure: (§1) Details regarding staining panels (human and mouse), reagents (including clones and catalog numbers), acquisition settings, compensation/controls, and analysis procedures are provided in Supplemental Methods.
BioLegend, Cat. No. 422301 or Mouse TruStain FcX™, BioLegend, Cat. No. 101319) for 10 minutes at 4°C. For surface marker detection, cells were stained with fluorochrome-conjugated monoclonal antibodies in 96-well V-bottom plates and incubated on ice for 30 minutes. After staining, cells were washed twice and resuspended in FACS buffer for analysis.
Prior to intracellular cytokine staining, cells were restimulated for 4 hours with PMA (Absin, Cat. No. abs9107), ionomycin (Sigma-Aldrich, Cat. No. I0634), and brefeldin A (MedChemExpress, Cat. No. HY-16592). For intracellular cytokine staining, cells were first surface-stained as described above, then fixed and permeabilized using the BD Cytofix/Cytoperm™ kit (BD Biosciences, Cat. No. 554714) according to the manufacturer ’s protocol. Intracellular proteins were stained with directly conjugated antibodies targeting IL-9, IL-17a, IL-4, IFN-γ, TNF-α, FOXP3, p-ZAP70, Perforin, and […]
Antibodies used for mouse samples included those against IL-9 (PE, clone RM9A4, Biolegend, Cat. No. 514104), IFN-γ (PE, clone XMG1.2, Biolegend, Cat. No.
Cat. No. 103138), CD4 (APC/Cy7, clone E-AB-F1353UJ, Elabscience, Cat. No. […]

TNF-α in human Th9 cells = assay: Flow cytometry of TNF-α in human Th9 cells (Figure 8G); format: cell-based
Procedure: For Th9 polarization, cultures were supplemented with IL-4 (10 ng/mL, PeproTech, catalog AF-200-04), TGF-β (1 ng/mL), and neutralizing anti–IFN-γ monoclonal antibody (10 μg/mL, clone B27, BioXcell, catalog BE0245). After 3 days of initial culture, cells were either collected for downstream assays or continued in extended culture with refreshed cytokines to maintain lineage commitment without antibodies. Th9 cells were collected at days 4, 5, and 6 for subsequent in vitro assays. For adoptive transfer studies, day 4–cultured Th9 cells were washed and prepared for intravenous injection.
as §1
MH9A4, Biolegend, Cat. No. 507605, PE/Cy7, clone MH9A4, Biolegend, Cat. No. […]
clone Mab11, Biolegend, Cat. No. 502908), Perforin (APC, clone dG9, Biolegend, Cat.
Flow cytometric acquisition was performed using a BD Fortessa or Cytek Aurora cytometer. Data were analyzed with FlowJo software (v10.8.1 or newer). Fluorescence compensation, isotype-matched controls, and fluorescence-minus-one (FMO) controls were applied as appropriate for multicolor panel validation.
Cells were washed twice with PBS and lysed in 1 × lysis buffer (NCM, Cat. No. […]

Th9 cells = assay: IL-9+ Th9 cells transduced with MIGR1 or SREBP1 vector (S8K-L); format: cell-based, mouse; details: for IL-9 gate number: representative flow plot, Figure S8K; for IL-9 expression of Th9 cells: Supplemental Figure 8L
Procedure: For murine T cell transduction, MIGR1-based retroviral vector encoding Srebf1 was used. HEK293T cells were transfected with these constructs using Lipofectamine 3000 (Thermo Fisher Scientific) to produce viral particles. Supernatants were collected between 48 and 72 hours after transfection, filtered through a 0.45 μm membrane, and stored at –80°C. Naive murine CD4^+ T cells were activated with plate-bound anti-CD3 (2 μg/mL, clone 17A2, BioXCell) and soluble anti-CD28 (1 μg/mL, clone 37.51, BioXCell) stimulation in the presence of subset-specific polarizing cytokines and then transduced with viral supernatant supplemented with polybrene (10 μg/mL). […]
Ctrl MIGR1EpACtrl SREBP1EpA
Figure S8. […]
(K and L) Flow-cytometric analysis of IL-9 expression in Th9 cells transduced with either control (MIGR1) or SREBP1- […]
overexpressing vectors, with or without EpA treatment, showing representative plots (K) and quantification of IL-9⁺ cells (L) (n = 3). […]
(n = 3). Statistical analysis was performed using one-way ANOVA followed by Tukey’s post hoc test (G and H, J, L, N). ns, not significant. Repeated data are presented as mean ± SEM. *p < 0.05, **p < 0.01, ***p < 0.001, ****p < 0.0001.

anteiso-C15 Leu7 surfactin [EpA] was tested, and the ZAP70 phosphorylation (phosphorylated ZAP70) was “significantly enhanced ZAP70 phosphorylation”, the “TNF-α production in human CD4⁺ T cells (flow cytometric analysis)” value (TNF-α in human Th9 cells; Figure 8G, Th9-polarizing conditions, individual replicates, one per column (n = 4)) was 321000 and 314000 and 322000 and 302000 and the “TNF-α expression, human Th9” value (TNF-α in human Th9 cells; result in words) was “higher TNF-α expression”. For the same substance, the IL-9 gate number (Th9 cells; MIGR1 control vector) was 69.8, the “IL-9 expression of Th9 cells” value (Th9 cells; MigR1, replicate 1) was 69.8 and the “IL-9 expression of Th9 cells” value (Th9 cells; MigR1, replicate 2) was 68.8. The “IL-9 expression of Th9 cells” value (Th9 cells; MigR1, replicate 3) was 68.6, the IL-9 gate number (Th9 cells; SREBP1-overexpressing vector) was 50.3 and the “IL-9 expression of Th9 cells” value (Th9 cells; SREBP1, replicate 1) was 50.3. The “IL-9 expression of Th9 cells” value (Th9 cells; SREBP1, replicate 2) was 48.8, the “IL-9 expression of Th9 cells” value (Th9 cells; SREBP1, replicate 3) was 60.7 and the “EpA-induced IL-9 increase (protein) upon SREBP1 overexpression” value (Th9 cells; result in words) was “markedly suppressed”.
